A melting point compilation (Tetko et al.; mined from patent text by program, amines drawn as free bases though some values may be those of a salt)

melting point | SMILES
134 to 136 °C | CCCC(=O)Nc1c(C)cccc1C
87 to 89 °C | NC(=O)CCCCCc1ccc(Cl)cc1
245 to 247 °C | O=C(O)c1cn(C2CN(C(c3ccccc3)c3ccccc3)C2)c2cc(F)c(F)cc2c1=O
203 to 205 °C | NS(=O)(=O)Cc1ccc2oc([N+](=O)[O-])c(-c3ccccc3)c2c1
95.5 to 96.2 °C | Cc1onc(-c2ccccc2)c1-c1ccccc1
154 to 164 °C | CCCCCCCCCCCCc1nc(NC(=O)Nc2c(C(C)C)cccc2C(C)C)n[nH]1
225 to 229 °C | O=C(NC(=O)c1c(Cl)cccc1Cl)Nc1ccc(-c2ccc(Cl)cc2)nc1
145 °C | CCOc1ccc([N+](=O)[O-])c(NN2CCN(C)CC2)c1
203 to 206 °C | c1ccc2nc(COc3ccc(CCc4ccc(-c5nnn[nH]5)cc4)cc3)ccc2c1
282 to 283 °C | CCC(C)(C)c1cc(-c2cccc(C=C3SC(N4CCCC4)=NC3=O)c2)ccc1O
126 to 135 °C | Cc1nc(N)n(N)c(=O)c1CCO
80 °C | CC(=O)c1ccc2c(c1)CN(C(=O)C(F)(F)F)CC2
150 °C | CSc1nnc(C(N)(c2ccc(Cl)cc2)c2ccc3c(c2)c(-c2cccc(Cl)c2)nc2nnnn23)n1C (configuration not stated)
90 to 93 °C | COC(=O)C1=C(C)NC(C)=C(C(=O)OCCN2CCN(C(c3ccc(F)cc3)c3ccc(F)cc3)CC2)C1c1ccccc1[N+](=O)[O-] (configuration not stated)
51 to 53 °C | Cc1ccc(CO)nc1-c1ccccn1
203 to 205 °C | CCN1CCCCC1CNS(=O)(=O)c1ccc(Nc2ccnc3cc(Cl)ccc23)cc1 (configuration not stated)
146 to 147 °C | OCc1cccc2nc(-c3ccncc3)oc12
> 230 °C | COc1cc(C=O)cc(-c2cc3c(cc2F)c(=O)c(C(=O)O)cn3C2CC2)c1OC
303 °C | N#Cc1c(N2CCN(C(=O)c3ccco3)CC2)c2cc(Cl)cnc2[nH]c1=O
107 to 109 °C | O=[N+]([O-])c1cc(-c2ncnc(C(F)F)c2Cl)c(Cl)cc1Cl
197 to 199 °C | CN(C)c1ccc2sc(S(N)(=O)=O)cc2c1
260 to 262 °C | CC(C)(O)Cc1c(Br)cnc2c(NC(=O)c3c(Cl)cccc3Cl)cccc12
218 to 220 °C | COc1cc(Cn2ccc3ncnc-3c2)ccc1C(=O)N(C1CCCC1)C1CC(C)CC(C)C1 (configuration not stated)

melting point | SMILES
161 to 162 °C | COC(=O)[C@H]1CN(c2ccc3c(c2)sc(=O)n3C(C)C)C(=O)O1
183 to 185 °C | CCN1c2ncc(COc3cccc4[nH]ccc34)cc2C(=O)N(C)c2ccc(Cl)nc21
174 to 176 °C | Cc1cc(CCc2ccc(-c3ccc(C(F)(F)F)cc3)cc2)ccc1OCC(=O)O
190 to 192 °C | COCCOC(=O)C1=C(C)NC(C)=C(c2nnco2)C1c1cccc(Cl)c1Cl (configuration not stated)
66 to 70 °C | CS(=O)(=O)OCC1(c2ccc(Cl)cc2)CCC1
303 to 306 °C | Cn1c2ccccc2c2c3c(c4c5cc(O)ccc5n(CCC#N)c4c21)C(=O)NC3=O
123 to 125 °C | O=C(Nc1cccnc1NCc1ccc(Cl)cc1)c1ccccn1
249 °C | Cc1nc(N)nc(N)c1N=Nc1cccc(Cl)c1
> 300 °C | O=[N+]([O-])c1cc2nc(O)c(O)nc2cc1Br
65 to 66.5 °C | CCCCc1ccc2c(c1)Cc1ccccc1-2
> 260 °C | N#Cc1cnc2cc3c(cc2c1Nc1ccc(Oc2ccccc2)cc1)ncn3CCN1CCOCC1
90 to 95 °C | COc1c(OCc2ccc(-c3ccccc3S(=O)(=O)Nc3onc(C)c3C)c(COCCF)c2)cc(C)nc1C
116 to 117 °C | O=C(CCCCCCCCCCBr)Nc1ccc(O)cc1
126 to 128 °C | CCCOc1cc(-c2c(C(=O)OCC)c(CCl)nc3cc(OC)c(OC)cc23)ccc1OC
132 to 134 °C | CC(=O)OCC1OC(Oc2nc[nH]c2C(N)=O)C(OC(C)=O)C1OC(C)=O (configuration not stated)
152 to 154 °C | CN(C)CC1CCCCN1CCNC(=O)N1c2ccccc2NC(=O)c2ccccc21 (configuration not stated)
148 to 150 °C | CCS(=O)(=O)Oc1cc2c(C)c(CCN3CCN(c4ccccc4OC)CC3)c(=O)oc2cc1OC
> 260 °C | O=C1C(=O)c2c(nc3ccccn23)-c2cccc(Br)c21
159 to 160 °C | O=C(C#Cc1ccc(Br)cc1)Nc1ccccc1
195 to 196 °C | O=C(O)Cc1cnn(-c2ccc(Cl)cc2)c1-c1ccc(Cl)cc1
158 to 161 °C | CCc1cc(-c2ccc(NC(=O)N3CCc4cc(SC)c(C(F)(F)F)cc43)cc2)ccn1
75 to 77 °C | Cc1c(N)cc(Cl)cc1N
138 to 139 °C | O=C(NCCOc1ccc(CC(OCc2ccccc2)C(=O)O)cc1)c1ccc(-c2ccccn2)cc1 (configuration not stated)

melting point | SMILES
83 to 86 °C | O=C1CN=C(c2ccccc2)O1
202 to 204 °C | CC(C)(C)C(=O)Oc1nc2c(N)ncnc2n1Cc1ccccc1
93 to 100 °C | COc1cc(F)ccc1-c1ccc(S(=O)(=O)N2c3ccccc3CC2C(=O)O)cc1 (configuration not stated)
146 °C | COCCOc1ccc(/C=C(\C)C(=O)NS(=O)(=O)c2ccc(Cl)cc2)c(Oc2ncc(C(F)(F)F)cc2Cl)c1
150 to 153 °C | CNC(=O)N(O)Cc1ccc(OCc2ccccc2)cc1
187 to 189 °C | O=C1c2ccccc2C(=O)N1Nc1ccc(/C=C/C(c2cc(Cl)c(Cl)c(Cl)c2)C(F)(F)F)cc1 (configuration not stated)
183 °C | O=C(c1ccc(O)cc1)c1cc(Cl)cc(Cl)c1
150 to 154 °C | CC(C)NCCNC(=O)c1ccc(OCc2ccc(-c3ccccc3)cc2)cc1
183 to 184 °C | CCc1cnn(CC(=O)O)c1OCCn1cc(C(=O)NCc2ccc(C(F)(F)F)cc2)c(OC(C)C)n1
85 °C | COC(=O)[C@@H]1CN(C(=O)OCc2ccccc2)C[C@H]1c1ccc(OC)c(OC2CCCC2)c1 (relative stereo)
192 to 194 °C | COc1ccc(C2(c3ccc(N(C)C)cc3)OC(=O)c3cc(N(C)C)ccc32)c(OC)c1 (configuration not stated)
177 to 178 °C | O=C(Nc1ccc(S(=O)(=O)C(F)(F)F)cc1Cl)c1cc(-c2ccc(F)cc2F)cc(C23CC4CC(CC(C4)C2)C3)c1O
99 °C | Cc1cccc(C)c1N(Cn1cnc(Cl)c1Cl)C(=O)CCl
175 to 176 °C | CC(=O)Nc1c(C(=O)c2ccc(Cl)cc2)[nH]c2cc(Cl)ccc12
127 to 129 °C | COc1ccc(OC)c(-c2cccc(-n3cnc(-c4nc(C)no4)c3)c2)c1
226 to 230 °C | COCc1cc2c(Nc3cccc(Cl)c3)ncnc2[nH]1
121 to 123 °C | CCc1c(C)cc(C#N)c(N)c1C#N
79 to 82 °C | CCCCCCOC(Cc1ccc(OCCc2nc(-c3ccccc3)oc2C)c2ccsc12)C(=O)O (configuration not stated)
123 to 124 °C | CCCCC1OC(=O)c2cc(NC3CCCCC3)ccc21 (configuration not stated)
228 to 230 °C | COc1cc(Nc2ncc3cc(-c4c(Cl)cccc4Cl)c(=O)n(C)c3n2)cc(OC)c1
58.9 °C | [N-]=[N+]=N[C@@H]1CN2C(=O)N(c3cc(Cl)cc(Cl)c3)C(=O)[C@]2(Cc2ccc(Br)cc2)C1
185 to 189 °C | CNC(=O)c1ccc(N2CCN(Cc3cc4c(c(-c5ccccc5)c3)OC(C)C(=O)N4)CC2)cc1 (configuration not stated)
134 to 135 °C | CS(=O)(=O)c1ccc(OCC2CCN(CC3CC3)CC2)cc1

melting point | SMILES
98 to 100 °C | CC(=O)c1cc(S(=O)(=O)N(C)C)c(Cl)cc1Cl
68 °C | CCOc1nn(C(=O)NS(=O)(=O)c2ccccc2N2CCCC2)c(=O)n1C
128 to 130 °C | O=C(CNC(=O)c1ccc([N+](=O)[O-])c(I(=O)=O)c1)OCC(Cl)(Cl)Cl
70 to 80 °C | COC(=O)N(COc1ccc(Cl)cc1Cl)c1ccc(Cl)cc1
121 to 123 °C | COC(=N)Nc1ccc(C(F)(F)F)cc1
118 °C | Cc1nnc(C(F)(F)F)n1-c1ccccc1
155 to 157 °C | CCC1(CCCCN2CCc3sccc3C2)C(=O)Nc2cc(F)c(Cl)cc21 (configuration not stated)
175 °C | COC(=O)c1ccc(NCc2cc(O)ccc2O)cc1
116 to 119 °C | C(=Cc1ccccc1)COC(CCc1ccccc1)Cn1ccnc1 (configuration not stated)
101 to 104 °C | Nc1ncnc2c1c(-c1ccc(Oc3ccccc3)cc1)cn2[C@H]1CC[C@@H](N2CCCC2)CC1
191 to 194 °C | COc1ccc(/C(=C/C(=O)N2CCN(C(=O)c3cc(OC)c(OC(C)=O)c(OC)c3)CC2)c2ccccc2Cl)cc1
233 to 235 °C | O=C1NC(=O)C(c2ccc(-c3ccccc3)s2)O1 (configuration not stated)
124 to 125 °C | CC(=O)Oc1ccc(/C=C/c2cccc(OC(C)=O)c2)cc1
150 to 151 °C | Cc1cccc2c(=O)[nH]c(CCCN3CCC[C@@H]3CO)cc12
272 to 275 °C | NC(=O)Cc1cc(Oc2ccc3c(ccn3C(=O)Nc3ccc(N4CCOCC4)c(C(F)(F)F)c3)c2)ncn1
146 to 147 °C | BrCc1ccc(-c2onc3ccccc23)cc1
189 to 190 °C | O=[N+]([O-])c1cn2c(n1)O[C@@H](COc1ccc(N3CCC(Nc4ccc(OC(F)(F)F)cc4)CC3)cc1)CC2
101 to 105 °C | CCCn1nc2c(N)nc3ccccc3c2c1CCCCN1C(C)=NOC12CCCC2
90 to 92 °C | CCCCS(=O)(=O)NC1Cc2ccc(C(C)=O)cc2C1 (configuration not stated)
> 280 °C | CC(=O)N1CCC(C2=C(C#N)C(c3cccc(C#N)c3Br)c3c[nH]nc3N2)CC1 (configuration not stated)
129 to 131 °C | CCCCc1oc2ccccc2c1C(=O)NCC(=O)c1ccc2cc(OC)ccc2c1
81 °C | COc1ccc(-c2sc3c(c2OC(C)=O)CCCC3)cc1
145 to 146 °C | O=C(O)C1CCCc2c(OCc3ccccc3)cccc21 (configuration not stated)

SMILES | melting point
CC(=O)C1CCC2C3CCC4CC(O)C(O)CC4(C)C3C(=O)CC12C (configuration not stated) | 194 to 198 °C
CC1(S(=O)(=O)N2C[C@@H](Cl)C[C@@H]2CCl)C=CC=CC1 (some centres not stated) | 103 to 105 °C
O=C(Nc1cccc(CO)c1)NC1N=C(c2ccccc2F)c2ccccc2N(CC(=O)N2CC3CCC(CC3)C2)C1=O (racemic) | 143 to 161 °C
N#CC1CN1C(=O)CNC=O (configuration not stated) | 51 to 56 °C
COc1ccc(C(O)CNC(C)Cc2ccc(OCCO)cc2)cc1F (configuration not stated) | 112 to 115 °C
